Experimental data reported in patent US10251885B2, “Azole antifungal compositions” (ALLERGAN PHARMACEUTICALS INTERNATIONAL LIMITED, priority 2009, dated 2019).
≈ marks a conversion by molar mass, not a printed value.

Columns and labels:
[1] = system: E. flucossum; experiment: Microdilution assay, minimum fungicidal concentration (MFC); assay type: cell-based, Epidermophyton flucossum; details: n = 5 strains
Protocol: (§1) Multiple strains of Trichophyton rubrum, Trichophyton mentagrophytes and Epidermophyton flucossum were obtained from the culture collection facility at the Center for Medical Mycology (University Hospitals of Cleveland/Case Western Reserve University, Cleveland, Ohio). The minimum inhibitory concentration (MICs) for albaconazole, ciclopirox and terbinafine against each dermatophyte strain was determined according to the method approved by the CLSI Antifungal Subcommittee as a reference method for determining dermatophyte susceptibilities (Ghannoum et al., J. Clin. Microbiol. 42: 2977-2979, 2004). […] Microbiol. Infect. Dis. 45:203-206, 2003.
(§2) Tables 1 and 2 describe the minimum inhibitory concentrations (in ug/mL) and the minimum fungicidal concentrations (in ug/mL), respectively, for the active agents against the dermatophyte strains.

[2] = system: E. flucossum; experiment: Microdilution assay, minimum inhibitory concentration (MIC); assay type: cell-based, Epidermophyton flucossum; details: n = 5 strains; for MIC50 / MIC90: Epidermophyton
Protocol: as §1, §2

[3] = system: T. rubrum; experiment: as above; assay type: cell-based, Trichophyton rubrum; details: n = 2 strains; for MIC50 / MIC90: Trichophyton rubrum
Protocol: as §1, §2

[4] = system: T. rubrum elevated terbinafine (MIC); experiment: as above; assay type: cell-based, Trichophyton rubrum; details: for MIC Range / MIC50 / MIC90: T. rubrum elevated terbinafine (MIC), n = 3 strains; for MIC50 / MIC90: Trichophyton rubrum
Protocol: as §1, §2

[5] = system: T. mentagrophytes; experiment: as above; assay type: cell-based, Trichophyton mentagrophytes; details: n = 5 strains; for MIC50 / MIC90: Trichophyton mentagrophytes
Protocol: as §1, §2

[6] = system: T. rubrum; experiment: Microdilution assay, minimum fungicidal concentration (MFC); assay type: cell-based, Trichophyton rubrum; details: n = 2 strains
Protocol: as §1, §2

[7] = system: T. rubrum elevated terbinafine (MIC); experiment: as above; assay type: cell-based, Trichophyton rubrum; details: n = 3 strains
Protocol: as §1, §2

[8] = system: All Dermatophytes; experiment: as above; assay type: cell-based; details: for MFC50 / MFC90 / MFC Range: All Dermatophytes, n = 15 strains
Protocol: as §1, §2

[9] = system: T. mentagrophytes; experiment: as above; assay type: cell-based, Trichophyton mentagrophytes; details: n = 5 strains
Protocol: as §1, §2

[10] = system: All Dermatophytes; experiment: Microdilution assay, minimum inhibitory concentration (MIC); assay type: cell-based; details: for MIC50 / MIC90 / MIC Range: All Dermatophytes, n = 15 strains
Protocol: as §1, §2

C[C@@H](n1cnc2cc(Cl)ccc2c1=O)[C@](O)(Cn1cncn1)c1ccc(F)cc1F [Albaconazole, (1R,2R)-7-chloro-3-[2-(2,4-difluorophenyl)-2-hydroxy-1-methyl-3-(1H-1,2,4-triazol-1yl)propyl]quinazolin-4(3H)-one]
MFC50 [1]: 0.25 µg/mL (≈ 0.579 µM)
MFC90 [1]: 8 µg/mL (≈ 18.5 µM)
MFC Range [1]: 0.06 to 8 µg/mL
MIC50 [2]: 0.015 µg/mL (≈ 0.0347 µM)
MIC90 [2]: 0.015 µg/mL (≈ 0.0347 µM)
MIC Range [2]: 0.008 to 0.015 µg/mL
MIC50 [3]: 0.06 µg/mL (≈ 0.139 µM)
MIC90 [3]: 0.06 µg/mL (≈ 0.139 µM)
MIC Range [3]: 0.06 µg/mL (≈ 0.139 µM)
MIC Range [4]: 0.015 to 0.25 µg/mL
MIC50 [4]: 0.06 µg/mL (≈ 0.139 µM)
MIC90 [4]: 0.25 µg/mL (≈ 0.579 µM)
effectiveness against terbinafine-resistant Trichophyton rubrum strains ([4]; compared with terbinafine, in words): more effective
MIC50 [5]: 0.12 µg/mL (≈ 0.278 µM)
MIC90 [5]: 0.5 µg/mL (≈ 1.16 µM)
MIC Range [5]: 0.12 to 0.5 µg/mL
MFC50 [6]: 0.5 µg/mL (≈ 1.16 µM)
MFC90 [6]: 8 µg/mL (≈ 18.5 µM)
MFC Range [6]: 0.5 to 8 µg/mL
MFC50 [7]: 0.25 µg/mL (≈ 0.579 µM)
MFC90 [7]: 1 µg/mL (≈ 2.32 µM)
MFC Range [7]: 0.06 to 1 µg/mL
MFC50 [8]: 0.5 µg/mL (≈ 1.16 µM)
MFC90 [8]: 8 µg/mL (≈ 18.5 µM)
MFC Range [8]: 0.06 to 8 µg/mL
MFCs overall, compared with ciclopirox and terbinafine ([8]; overall, in words): lower than those for ciclopirox and similar to those for terbinafine
MFC50 [9]: 1 µg/mL (≈ 2.32 µM)
MFC90 [9]: 8 µg/mL (≈ 18.5 µM)
MFC Range [9]: 0.5 to 8 µg/mL
MIC50 [10]: 0.06 µg/mL (≈ 0.139 µM)
MIC90 [10]: 0.25 µg/mL (≈ 0.579 µM)
MIC Range [10]: 0.008 to 0.5 µg/mL
MICs overall, compared with ciclopirox and terbinafine ([10]; overall, in words): lower than those for ciclopirox and similar to those for terbinafine

Cc1cc(C2CCCCC2)n(O)c(=O)c1 [Ciclopirox, ciclopirox]
MFC50 [1]: 4 µg/mL (≈ 19.3 µM)
MFC90 [1]: >32 µg/mL
MIC50 [2]: 0.12 µg/mL (≈ 0.579 µM)
MIC90 [2]: 0.12 µg/mL (≈ 0.579 µM)
MIC Range [2]: 0.12 µg/mL (≈ 0.579 µM)
MIC50 [3]: 0.12 µg/mL (≈ 0.579 µM)
MIC90 [3]: 0.12 µg/mL (≈ 0.579 µM)
MIC Range [3]: 0.12 µg/mL (≈ 0.579 µM)
MIC Range [4]: 0.12 µg/mL (≈ 0.579 µM)
MIC50 [4]: 0.12 µg/mL (≈ 0.579 µM)
MIC90 [4]: 0.12 µg/mL (≈ 0.579 µM)
MIC50 [5]: 0.25 µg/mL (≈ 1.21 µM)
MIC90 [5]: 0.25 µg/mL (≈ 1.21 µM)
MIC Range [5]: 0.12 to 0.25 µg/mL
MFC50 [6]: 16 µg/mL (≈ 77.2 µM)
MFC90 [6]: 32 µg/mL (≈ 154 µM)
MFC Range [6]: 16 to 32 µg/mL
MFC50 [7]: 16 µg/mL (≈ 77.2 µM)
MFC90 [7]: >32 µg/mL
MFC50 [8]: 16 µg/mL (≈ 77.2 µM)
MFC90 [8]: >32 µg/mL
MFC50 [9]: >32 µg/mL
MFC90 [9]: >32 µg/mL
MIC50 [10]: 0.12 µg/mL (≈ 0.579 µM)
MIC90 [10]: 0.25 µg/mL (≈ 1.21 µM)

CN(C/C=C/C#CC(C)(C)C)Cc1cccc2ccccc12 [Terbinafine, terbinafine]
MFC50 [1]: 0.03 µg/mL (≈ 0.103 µM)
MFC90 [1]: 0.03 µg/mL (≈ 0.103 µM)
MIC50 [2]: 0.002 µg/mL (≈ 0.00686 µM)
MIC90 [2]: 0.008 µg/mL (≈ 0.0275 µM)
MIC Range [2]: 0.002 to 0.008 µg/mL
MIC50 [3]: 0.002 µg/mL (≈ 0.00686 µM)
MIC90 [3]: 0.002 µg/mL (≈ 0.00686 µM)
MIC Range [3]: 0.002 µg/mL (≈ 0.00686 µM)
MIC Range [4]: 8 to 32 µg/mL
MIC50 [4]: 8 µg/mL (≈ 27.5 µM)
MIC90 [4]: 32 µg/mL (≈ 110 µM)
MIC50 [5]: 0.002 µg/mL (≈ 0.00686 µM)
MIC90 [5]: 0.004 µg/mL (≈ 0.0137 µM)
MIC Range [5]: 0.002 to 0.004 µg/mL
MFC50 [6]: 0.008 µg/mL (≈ 0.0275 µM)
MFC90 [6]: 0.008 µg/mL (≈ 0.0275 µM)
MFC Range [6]: 0.008 µg/mL (≈ 0.0275 µM)
MFC50 [7]: 32 µg/mL (≈ 110 µM)
MFC90 [7]: >64 µg/mL
MFC50 [8]: 0.015 µg/mL (≈ 0.0515 µM)
MFC90 [8]: 32 µg/mL (≈ 110 µM)
MFC Range [8]: 0.008 µg/mL (≈ 0.0275 µM)
MFC50 [9]: 0.015 µg/mL (≈ 0.0515 µM)
MFC90 [9]: 0.03 µg/mL (≈ 0.103 µM)
MFC Range [9]: 0.015 to 0.03 µg/mL
MIC50 [10]: 0.002 µg/mL (≈ 0.00686 µM)
MIC90 [10]: 8 µg/mL (≈ 27.5 µM)
MIC Range [10]: 0.002 to 32 µg/mL
